Measurements taken from patent US10828372B2, “Compositions and methods for the inhibition of fibrosis” (WISCONSIN ALUMNI RESEARCH FOUNDATION, priority 2017, dated 2020).
Where no end group is shown, it is not given here.

Key:
human plasma FN = test: Isothermal Titration calorimetry (ITC) of peptide binding to fibronectin; conditions: pH 7.4 PBS, 25° C., triplicate
Procedure: Isothermal Titration calorimetry (ITC): ITC experiments were performed using a VP-ITC microcalorimeter (MicroCal, LLC) with a cell volume of 2.2 mL. In a typical experiment, the cell was filled with 1.4 mL of 2 μM human plasma FN and the syringe was filled with 1 mL of 28 μM FUD or PEG-FUD peptides. The temperature was set to 25° C. The titration experiment was performed in 39 injections (1×1, 4×4, and 34×8 μL) delivered in 120 sec intervals. Prior to injection, both FN and the peptides were dialyzed in separate dialysis bags overnight into the same PBS buffer (pH 7.4) solution. Routine analysis involved discarding of the first data point and subtraction of peptide into PBS buffer control run. Data were fit using one set of sites model Lavenberg-Marquardt nonlinear regression in Origin 7.0.
The binding of 10 kDa, 20 kDa, and 40 kDa PEG-FUD to FN was studied using Isothermal Titration calorimetry (ITC). This technique was used to determine the thermodynamic parameters as well as the binding constant (Kd) of the interaction. The peptide was injected into a human plasma FN solution in PBS at pH 7.4 and 25° C. in triplicate runs. […] A Kd of 6 (±3) nM was detected for FUD:FN. […] Similar entropy change of −65 (±3) cal/mol, −74 (±7) cal/mol, −66 (±7) cal/mol, and −73 (±2) and enthalpy change of −31 (±1) kcal/mol, −34 (±2) kcal/mol, −30 (±1) kcal/mol, and −32.5 (±0.5) kcal/mol were detected for the interaction of FUD and 10 kDa, 20 kDa, and 40 kDa PEG-FUD with FN, respectively. […] This observation is contrary to the expectation of PEG attachment diminishing a drug's affinity for its binding partner and presents an unexpected but desired feature of the PEG-FUD peptide.

[1] = tested on: human proximal tubular epithelial cells (HK-2); test: Cell viability of proximal tubular epithelial cells (AlamarBlue); assay type: cell-based; conditions: doses up to 500 nM
Text: Endogenous (cellular) fibronectin assembly assay: This immunochemical assay measures the ECM incorporation of EDA-containing fibronectin synthesized by human fibroblasts and human proximal tubular epithelial cells. Human proximal epithelial cells, HK-2 cells, were obtained from ATCC (CRL-2190). The EDA+ fibronectin is a splice variant synthesized and secreted by a variety of cells mostly during embryonic development and during wound healing, ECM remodeling, or fibrotic conditions in the adult. […] Fluorescence of AlamarBlue® was read at 555 nm excitation and 585 nm emission. […] Similar to the measurement of exogenous A488-FN fluorescence, A488-EDA fluorescence was read using microplate reader equipped with bottom-readout capabilities at 485 nm excitation and 525 nm emission. Fluorescence of wells to which A488-IgG was added, i.e., background green fluorescence from non-specific IgG binding and from the cell monolayer was subtracted from fluorescence values of wells incubated with A488-EDA. Data is presented for fibronectin fibrillogenesis or cell viability as percent of fluorescence values (AlexaFluor® 488 fluorescence or AlamarBlue®, respectively) for wells with no peptides.

Chain of human plasma FN (P02751 32-608 limits assumed): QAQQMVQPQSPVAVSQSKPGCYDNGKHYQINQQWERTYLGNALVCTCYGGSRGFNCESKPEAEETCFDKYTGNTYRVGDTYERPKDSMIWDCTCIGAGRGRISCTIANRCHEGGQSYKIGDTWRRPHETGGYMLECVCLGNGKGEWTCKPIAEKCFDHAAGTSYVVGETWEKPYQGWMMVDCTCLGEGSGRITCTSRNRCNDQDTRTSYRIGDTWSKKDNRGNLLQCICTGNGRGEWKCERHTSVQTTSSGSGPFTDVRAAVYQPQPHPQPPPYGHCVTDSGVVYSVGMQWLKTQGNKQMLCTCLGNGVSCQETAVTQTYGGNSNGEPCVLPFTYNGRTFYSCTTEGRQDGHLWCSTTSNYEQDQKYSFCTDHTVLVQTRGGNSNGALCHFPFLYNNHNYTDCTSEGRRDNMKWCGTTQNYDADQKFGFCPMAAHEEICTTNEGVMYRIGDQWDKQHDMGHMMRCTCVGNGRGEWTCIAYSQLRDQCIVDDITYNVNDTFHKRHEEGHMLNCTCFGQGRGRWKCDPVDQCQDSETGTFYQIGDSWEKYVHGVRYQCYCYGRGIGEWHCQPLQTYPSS

| Substance | Kd (human plasma FN) [nM] | human proximal tubular epithelial cell viability [1] |
| --- | --- | --- |
| FUD: 49 amino acid FUD peptide, SEQ ID NO: 1, recombinantly expressed, His-tag removed; inhibitor of fibronectin fibrillogenesis (KDQSPLAGESGETEYITEVYGNQQNPVDIDKKLPNETGFSGNMVETEDT; human) [reference compound] | 6 | approximately 100% |
| PEG-FUD: PEGylated FUD prepared as in Example 1, PEG size not stated; approximately 27 kDa by mass spectrometry, likely the 20 kDa conjugate (KDQSPLAGESGETEYITEVYGNQQNPVDIDKKLPNETGFSGNMVETEDT; not fully specified (N-terminus); also: PEG size not given here) | ~10 | approximately 100% |
